What was measured:
Type in all cases: cell-based, human
[1] = system: HADC100 ESC; assay: Gene expression of ES-MSC in monolayer culture; conditions: comparison of ALK5 inhibitors
Procedure: An overview of the differentiation process is provided in FIG. 1, panel K. To create cell clusters or embryoid bodies of uniform size, ESCs were removed from CellStart culture using Accutase® for 2-5 minutes until single cells were observed. Cells (2.5-3×10^5 cells per ml) were suspended in StemPro human ESC serum free medium (ThermoFisher) with 10 μM Y-27632 (EMD Chemicals, Gibbstown, NJ) and 40 ng/ml FGF (Life Technologies, Carlsbad, CA) in a 125 ml spinner culture flask (Corning Inc., Corning, NY) on a magnetic stirrer (CimarecTM Biosystem Slow-Speed Stirrer, ThermoFisher) at 70 rpm for 24 hours at 37° C. with 5% CO2 to form small cell clusters (minimum total cells was 7.5×10^6 in 30 ml). After 24 hours, the cell clusters were suspended at 2.5-3×10^5 cells per ml in ultra-low adherent 6 well plates (Corning) in […] free medium (ThermoFisher) supplemented with 2 mM L-glutamine (ThermoFisher Scientific), 50 μg/ml Ascorbic acid (Stemcell Technologies, Vancouver, Canada) and 1.8 μl/ml ITS-G (100× Insulin-Transferrin-Selenium; ThermoFisher); termed as “complete SP-34 medium”. […] Expression of the following genes was quantified POU5F1/OCT4 and SOX2 (for pluripotency); FOXA1 and SOX17 (for endoderm); NES and PAX6 (for ectoderm); NKX2-5, MSX1, NCAM1, and SOX9 (for mesoderm); ITGB1/CD29 (for MSC phenotype); and COL1A1, COL2A1, COL10A1, COMP, ACAN, and SOX9 and RUNX2 (for chondrogenesis). […]

[2] = system: H9 ES-MSC; assay: Chondrogenic gene expression of pellets relative to monolayer controls
Procedure: (§1) Monolayer-expanded ES-MSC (passage 2-5) were detached using Accutase® and 0.5×10^6 cells in 0.5 ml of chondrogenic medium were centrifuged at 900 rpm (~770 G) for 5 minutes to form high-density pellets. At least 5-6 pellets, for each ES-MSC condition, were cultured in serum-free chondrogenic medium consisting of Dulbecco's Modified Eagle Medium (Mediatech Inc., Manassas, VA), 1×ITS supplement (Sigma-Aldrich, St. Louis, MO), 100 nM Dexamethasone (Sigma), 1.25 mg/ml human serum albumin (Bayer, Leverkusen, Germany), 100 μM ascorbic acid 2-phosphate (Sigma), 1% penicillin/streptomycin/gentamycin (PSG, Gibco, Carlsbad, CA), and 10 ng/ml TGFβ3 (PeproTech, Rocky Hill, NJ). Pellets for ex vivo implantation were cultured for 3 days before implantation; pellets for histologic or gene expression analysis were maintained in culture for 3 weeks with media changes every 3 to 4 days.
(§2) Total RNA was extracted from using the RNeasy kit as recommended by the manufacturer (QIAGEN, Valencia, CA). […] Expression of the following genes was quantified POU5F1/OCT4 and SOX2 (for pluripotency); FOXA1 and SOX17 (for endoderm); NES and PAX6 (for ectoderm); NKX2-5, MSX1, NCAM1, and SOX9 (for mesoderm); ITGB1/CD29 (for MSC phenotype); and COL1A1, COL2A1, COL10A1, COMP, ACAN, and SOX9 and RUNX2 (for chondrogenesis). […]

[3] = system: HADC 100 ES-MSC; assay: as above; conditions: HADC 100 ES-MSC pellets
Procedure: as §1, §2

[4] = system: HAD ES-MSC; assay: Fibrin-ECM hydrogel construct culture on needle array; conditions: 20×10^6 cells per ml, 3 weeks of culture, N=8
Procedure: Monolayer cultured ES-MSC were suspended in a hydrogel wafer composed of collagen II (Innovative Research Inc. Novi, MI), hyaluronate (Supartz FX sodium hyaluronate, Seikagaku Corp. Tokyo, Japan), chondroitin sulfate (Sigma-Aldrich) and fibrin (Baxter Healthcare, Deerfield, IL) at a density of 20×10^6 cells per ml. The fibrinogen and thrombin components were prepared separately. To each fibrinogen component, 2 mg/ml sodium hyaluronate, 2 mg/ml chondroitin sulfate and 6 mg/ml collagen II was added (2× concentration of final). Cells were added to the thrombin component at a density of 40×10^6 cells per ml. Thrombin and fibrinogen components in individual syringes were attached to a Baxter DUO mixing syringe and extruded to form the coagulated constructs. The constructs were either directly implanted into ex vivo cartilage tissue or coagulated in 6 well tissue culture plates for 4 to 8 minutes before 4-6 ml of chondrogenic medium was added. To prevent shrinkage of the constructs during culture, the gels were held on AdminPatch microneedle arrays (AdminMed, Sunnyvale, CA) for the duration of their culture.
Cell pellets and explants were fixed in Z-Fix (3.7% formaldehyde, Anatech Ltd., Battle Creek, MI), processed for embedding in paraffin, and cut into 4 μm-thick sections. Sections were stained with Safranin-O and Fast Green to visualize glycosaminoglycan distribution in the tissues. […]

[5] = system: ES-MSC microspheroids; assay: Microspheroid building chamber neo-cartilage formation; conditions: 3 weeks in chamber
Source text: Using a microspheroid building block approach, ES-MSC derived from treatment with ALK-5 inhibitor SB525334, as described in Example 1, were used to produce bone and cartilage (osteochondral) tissues. […] The OC tissue unit was implanted into an ex vivo model to develop biphasic tissue with an upper cartilage and lower calcified cartilage layer (FIG. 11, panels J-M). Both upper and lower tissues were Safranin O and collagen type II positive (FIG. 11, panels J-K), while the lower tissue producing calcified neo tissue (FIG. 11, panel L; von Kossa positive) and osteopontin (FIG. 11, panel M).

[6] = system: ES-MSC; assay: ES-MSC on pneumatospun collagen type I scaffold, in vitro culture; conditions: 6 weeks in chondrogenic medium
Source text: ES-MSC derived from treatment with ALK-5 inhibitor SB525334, as described in Example 1, produced meniscus cartilage-like tissues when seeded upon blow spun collagen scaffolds in in vitro and in vivo.

## NC(=O)c1ccc(-c2nc(-c3ccc4c(c3)OCO4)c(-c3ccccn3)[nH]2)cc1 [SB431542]
[1]
  generating mesoderm markers (NCAM1, SOX9) and increasing COL2A1 expression: superior
[2]
  chondrogenic genes (COL2A1, ACAN, COMP and SOX9) relative to monolayer controls: higher levels
[3]
  chondrogenic genes (COL2A1, ACAN, COMP and SOX9) relative to monolayer controls: higher levels
[4]
  cartilaginous tissue in fibrin-ECM construct (Safranin O fast green): production of cartilaginous tissue

## Cc1cccc(-c2[nH]c(C(C)(C)C)nc2-c2ccc3nccnc3c2)n1 [SB525334]
[5]
  cartilage GAGs staining of neo-cartilage tissue: positive for cartilage GAGs
  collagen type II staining of neo-cartilage tissue: positive for collagen type II
[6]
  Safranin O staining (GAG deposition) on collagen scaffold: extensive GAG deposition

From patent US20260242738A1, “ALK5 INHIBITORS FOR EFFICIENT DERIVATION OF MESENCHYMAL STEM CELLS FROM EMBRYONIC STEM CELLS” (SCRIPPS HEALTH, priority 2022, published 2026)
